Earlier results on 23 compounds are cited in patent publication US20240315993A1, “ANTIPARASITIC COMPOUNDS” (Intervet Inc., priority 2021, published 2024).

Data set [1] concerns Beet Armyworm (Spodoptera exigua). As to conditions: Beet Armyworm second instar larvae, 128-well diet tray, 50 μg/cm^2, five to seven days, average of eight wells; cited from earlier work.
Data set [2] has as its system Cabbage Looper (Trichoplusia ni). As to conditions: Cabbage Looper second instar larvae, 128-well diet tray, 50 μg/cm^2, five to seven days, average of eight wells; cited from earlier work.
The subject of data set [3] is Yellow Fever Mosquito (Aedes aegypti). As to conditions: Aedes aegypti larvae about 1 day old, 96-well plate, scored after 3 days; cited from earlier work.

Take `Cc1cc(N)ccc1NC(=O)c1cc(NC(=O)C2C(c3cc(Cl)c(Cl)c(Cl)c3)C2(Cl)Cl)ccc1Cl` (stereo not drawn) [c84]: the “Test A: Bioassay on BAW, percent mortality rating” value in data set [1] was “A (50-100)”. In addition, the “Test B: Bioassay on CL, percent mortality rating” value (“Test B … percent mortality rating” below) in data set [2] is reported as “A (50-100)”. In data set [3], the “Test C: Bioassay on Yellow Fever Mosquito, mortality rating” value (shortened to “Test C: Bioassay”) is recorded as “A (80-100)”.

Take `N#Cc1ccc(NC(=O)c2cc(NC(=O)C3C(c4cc(Cl)cc(Cl)c4)C3(Cl)Cl)ccc2Cl)c(C#N)c1` (stereo not drawn) [c85]: the “Test A: Bioassay on BAW, percent mortality rating” value in data set [1] is listed as “A (50-100)”. Further, the “Test B … percent mortality rating” value in data set [2] is given as “A (50-100)”. In addition, the “Test C: Bioassay” value in data set [3] was “A (80-100)”.

In the case of `CN1C(=O)CCc2cc(NC(=O)c3cc(NC(=O)C4C(c5cc(Cl)cc(Cl)c5)C4(Cl)Cl)ccc3Cl)ccc21` (stereo not drawn) [c86], the “Test A: Bioassay on BAW, percent mortality rating” value in data set [1] is reported as “A (50-100)”. Besides, in data set [2], the “Test B … percent mortality rating” value was “A (50-100)”. For the same compound, in data set [3], the “Test C: Bioassay” value is listed as “A (80-100)”.

Take `CN1CCCc2cc(NC(=O)c3cc(NC(=O)C4C(c5cc(Cl)cc(Cl)c5)C4(Cl)Cl)ccc3Cl)ccc21` (stereo not drawn) [c87]: the “Test A: Bioassay on BAW, percent mortality rating” value in data set [1] is on record as “A (50-100)”. Besides, the “Test B … percent mortality rating” value in data set [2] is recorded as “A (50-100)”. The “Test C: Bioassay” value in data set [3] is “A (80-100)”.

Turning to `O=C(Nc1ccc2c(c1)CCCN2)c1cc(NC(=O)C2C(c3cc(Cl)cc(Cl)c3)C2(Cl)Cl)ccc1Cl` (stereo not drawn) [c88], the “Test A: Bioassay on BAW, percent mortality rating” value in data set [1] is listed as “A (50-100)”. For the same compound, the “Test B … percent mortality rating” value in data set [2] is on record as “A (50-100)”. Besides, the “Test C: Bioassay” value in data set [3] is given as “A (80-100)”.

For `Cc1cc(N)ccc1NC(=O)c1cc(NC(=O)C2C(c3ccc(F)c(Cl)c3)C2(Cl)Cl)ccc1Cl` (stereo not drawn) [c89], the “Test A: Bioassay on BAW, percent mortality rating” value in data set [1] is on record as “A (50-100)”. Besides, the “Test B … percent mortality rating” value in data set [2] is recorded as “A (50-100)”. Besides, the “Test C: Bioassay” value in data set [3] is on record as “A (80-100)”.

Take `CC(=O)Nc1cccc(NC(=O)c2cc(NC(=O)C3C(c4cc(Cl)cc(Cl)c4)C3(Cl)Cl)ccc2Cl)n1` (stereo not drawn) [c90]: the “Test A: Bioassay on BAW, percent mortality rating” value in data set [1] is listed as “A (50-100)”. Moreover, the “Test B … percent mortality rating” value in data set [2] is recorded as “A (50-100)”. Also, the “Test C: Bioassay” value in data set [3] was “A (80-100)”.

`N#Cc1ccc(NC(=O)c2cc(NC(=O)C3C(c4cc(Cl)cc(Cl)c4)C3(Cl)Cl)ccc2Cl)nc1N` (stereo not drawn) [c91]: the “Test A: Bioassay on BAW, percent mortality rating” value in data set [1] was “A (50-100)”. In addition, in data set [2], the “Test B … percent mortality rating” value is given as “A (50-100)”. Further, the “Test C: Bioassay” value in data set [3] is “D (No activity noticed in this bioassay)”.

As for `CS(=NC#N)c1ccc(NC(=O)c2cc(NC(=O)C3C(c4cc(Cl)cc(Cl)c4)C3(Cl)Cl)ccc2Cl)cc1` (stereo not drawn) [c92], the “Test A: Bioassay on BAW, percent mortality rating” value in data set [1] is recorded as “A (50-100)”. Further, the “Test B … percent mortality rating” value in data set [2] was “A (50-100)”. In addition, the “Test C: Bioassay” value in data set [3] is on record as “A (80-100)”.

For `O=C(Nc1ccc2c(ccn2CCF)c1)c1cc(NC(=O)C2C(c3cc(Cl)cc(Cl)c3)C2(Cl)Cl)ccc1Cl` (stereo not drawn) [c93], in data set [1], the “Test A: Bioassay on BAW, percent mortality rating” value is listed as “A (50-100)”. Also, the “Test B … percent mortality rating” value in data set [2] was “A (50-100)”. Also, in data set [3], the “Test C: Bioassay” value is given as “A (80-100)”.

Take `O=C(Nc1ccc2[nH]c(-c3ccccc3)cc2c1)c1cc(NC(=O)C2C(c3cc(Cl)cc(Cl)c3)C2(Cl)Cl)ccc1Cl` (stereo not drawn) [c94]: in data set [1], the “Test A: Bioassay on BAW, percent mortality rating” value is on record as “A (50-100)”. Moreover, the “Test B … percent mortality rating” value in data set [2] is given as “A (50-100)”. Further, in data set [3], the “Test C: Bioassay” value is “A (80-100)”.

For the compound `Cc1cccc(NC(=O)c2cc(NC(=O)C3C(c4cc(Cl)cc(Cl)c4)C3(Cl)Cl)ccc2Cl)c1C#N` (stereo not drawn) [c95], the “Test A: Bioassay on BAW, percent mortality rating” value in data set [1] is listed as “A (50-100)”. For the same compound, in data set [2], the “Test B … percent mortality rating” value is “A (50-100)”. The “Test C: Bioassay” value in data set [3] is “A (80-100)”.

For the compound `CN1Cc2ccc(NC(=O)c3cc(NC(=O)C4C(c5cc(Cl)cc(Cl)c5)C4(Cl)Cl)ccc3Cl)cc2C1` (stereo not drawn) [c96], the “Test A: Bioassay on BAW, percent mortality rating” value in data set [1] was “A (50-100)”. In addition, the “Test B … percent mortality rating” value in data set [2] is “A (50-100)”. In addition, in data set [3], the “Test C: Bioassay” value is given as “A (80-100)”.

Take `CC(C)(C)OC(=O)Nc1cccc(NC(=O)c2cc(NC(=O)C3C(c4cc(Cl)cc(Cl)c4)C3(Cl)Cl)ccc2Cl)n1` (stereo not drawn) [c97]: the “Test A: Bioassay on BAW, percent mortality rating” value in data set [1] is “A (50-100)”. Also, the “Test B … percent mortality rating” value in data set [2] is on record as “A (50-100)”. Besides, the “Test C: Bioassay” value in data set [3] is “D (No activity noticed in this bioassay)”.

Turning to `CC(C)(C)OC(=O)Nc1cccc(NC(=O)c2cc(NC(=O)C3C(c4ccc(F)c(Cl)c4)C3(Cl)Cl)ccc2Cl)n1` (stereo not drawn) [c98], the “Test A: Bioassay on BAW, percent mortality rating” value in data set [1] is “A (50-100)”. Also, in data set [2], the “Test B … percent mortality rating” value was “A (50-100)”. Besides, the “Test C: Bioassay” value in data set [3] is recorded as “A (80-100)”.

In the case of `O=C(Nc1ccc2c(c1)CCN2)c1cc(NC(=O)C2C(c3cc(Cl)cc(Cl)c3)C2(Cl)Cl)ccc1Cl` (stereo not drawn) [c99], the “Test A: Bioassay on BAW, percent mortality rating” value in data set [1] is recorded as “A (50-100)”. In addition, the “Test B … percent mortality rating” value in data set [2] is listed as “A (50-100)”. In addition, in data set [3], the “Test C: Bioassay” value is “A (80-100)”.

With `CNc1ccc(NC(=O)c2cc(NC(=O)C3C(c4ccc(Br)c(Cl)c4)C3(Cl)Cl)ccc2Cl)c(C)c1` (stereo not drawn) [c100], the “Test A: Bioassay on BAW, percent mortality rating” value in data set [1] is on record as “A (50-100)”. Besides, in data set [2], the “Test B … percent mortality rating” value is “A (50-100)”. In data set [3], the “Test C: Bioassay” value is recorded as “A (80-100)”.

For `Cc1cc(N)ccc1NC(=O)c1cc(NC(=O)C2C(c3ccc(Br)c(Cl)c3)C2(Cl)Cl)ccc1Cl` (stereo not drawn) [c101], in data set [1], the “Test A: Bioassay on BAW, percent mortality rating” value is “A (50-100)”. Moreover, the “Test B … percent mortality rating” value in data set [2] is on record as “A (50-100)”. Besides, the “Test C: Bioassay” value in data set [3] is reported as “A (80-100)”.

On to `Cc1cc(NC(=O)OC(C)(C)C)ccc1NC(=O)c1cc(NC(=O)C2C(c3cc(Cl)cc(Br)c3)C2(Cl)Cl)ccc1Cl` (stereo not drawn) [c102], for which the “Test A: Bioassay on BAW, percent mortality rating” value in data set [1] is “A (50-100)”. In addition, in data set [2], the “Test B … percent mortality rating” value was “A (50-100)”. For the same compound, the “Test C: Bioassay” value in data set [3] is “D (No activity noticed in this bioassay)”.

For the compound `Cc1cc(N)ccc1NC(=O)c1cc(NC(=O)C2C(c3cc(Cl)cc(Br)c3)C2(Cl)Cl)ccc1Cl` (stereo not drawn) [c103], in data set [1], the “Test A: Bioassay on BAW, percent mortality rating” value is recorded as “A (50-100)”. Moreover, in data set [2], the “Test B … percent mortality rating” value was “A (50-100)”. The “Test C: Bioassay” value in data set [3] is “A (80-100)”.

Turning to `CN1Cc2ccc(NC(=O)c3cc(NC(=O)C4C(c5cc(Cl)cc(Cl)c5)C4(Cl)Cl)ccc3Cl)cc2C1=O` (stereo not drawn) [c104], in data set [1], the “Test A: Bioassay on BAW, percent mortality rating” value was “A (50-100)”. Besides, the “Test B … percent mortality rating” value in data set [2] is “A (50-100)”. For the same compound, in data set [3], the “Test C: Bioassay” value is listed as “A (80-100)”.

Turning to `CN1Cc2cc(NC(=O)c3cc(NC(=O)C4C(c5cc(Cl)cc(Cl)c5)C4(Cl)Cl)ccc3Cl)ccc2C1=O` (stereo not drawn) [c105], in data set [1], the “Test A: Bioassay on BAW, percent mortality rating” value is recorded as “A (50-100)”. Further, in data set [2], the “Test B … percent mortality rating” value is “A (50-100)”. The “Test C: Bioassay” value in data set [3] is on record as “A (80-100)”.

As to `O=C(Nc1cncc([N+](=O)[O-])c1)c1cc(NC(=O)C2C(c3cc(Cl)cc(Cl)c3)C2(Cl)Cl)ccc1Cl` (stereo not drawn) [c106], the “Test A: Bioassay on BAW, percent mortality rating” value in data set [1] was “A (50-100)”. In data set [2], the “Test B … percent mortality rating” value is listed as “A (50-100)”. Besides, the “Test C: Bioassay” value in data set [3] was “A (80-100)”.
